Experimental data as given in patent US11702422B2, “Imidazopyridazines as modulators of IL-17” (Janssen Pharmaceutica NV, priority 2020, dated 2023).

Experiments:
[1] = target: IL-17A(FLAG-Tagged): IL-17RA(His-Tagged) (Homo sapiens, UniProt Q16552, K93Q); assay: IL-17A(FLAG-Tagged): IL-17RA(His-Tagged) Binding Disruption Eu-HTRF Assay; details: IL-17A/IL-17RA binding disruption, simple average if tested more than once
Procedure, shortened: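 IC50 comes from a one-site competition fit of the HTRF 665/620 nm ratio. Compound dilutions (2-fold, 22 points) were held 1 h rt with FLAG-tagged IL-17A dimer, then His-tagged IL-17RA plus Eu-cryptate anti-FLAG and D2 anti-His antibodies were added for 2 h rt.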

[2] = tested on: IL-17A-induced G-CSF production in human normal keratinocyte (NHK); assay: NHK Assay: IL-17A-induced G-CSF production in human normal keratinocytes; type: cell-based; details: adult normal human keratinocytes, IL-17A 5 ng/mL, 24 h, simple average if tested more than once
Procedure, shortened: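 IL-17A (5 ng/mL final) was pre-incubated 1 h at rt with titrated compound and then added to adult normal human keratinocytes (5% FBS, 0.2% DMSO) for 24 h at 37° C. Supernatant G-CSF was measured by HTRF against a standard curve to derive IC50. Viability was checked by CellTiter-Glo.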

UniProt Q16552, sequence (Q16552 with tags, fused parts or gaps K93Q): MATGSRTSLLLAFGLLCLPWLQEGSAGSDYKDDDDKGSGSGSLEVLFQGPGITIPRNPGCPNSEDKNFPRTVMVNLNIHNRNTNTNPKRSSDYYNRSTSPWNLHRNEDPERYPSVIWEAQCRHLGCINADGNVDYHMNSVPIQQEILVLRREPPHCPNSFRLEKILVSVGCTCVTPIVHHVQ

Row | IC50 [1] | Compound | IC50 [2] | IC50 ([2]; Homo sapiens, Keratinocyte)
1 | 47 nM | N#CC1(C(NC(=O)CC2CC(F)(F)C2)c2cnn3cc([C@@H](NC(=O)c4nonc4C4CC4)C4CCC(F)(F)CC4)nc3c2)CC1 (single isomer, unassigned) [Example 424, N—((S)-(7-((S*)-(1-Cyanocyclopropyl)(2-(3,3-difluorocyclobutyl)acetamido)methyl)imidazo[1,2-b]pyridazin-2-yl)(4,4-difluorocyclohexyl)methyl)-4-cyclopropyl-1,2,5-oxadiazole-3-carboxamide] | 40 nM | 
2 | 53 nM | CCOc1cc(C(=O)N[C@H](c2cn3ncc([C@H](NC(=O)CCC(F)(F)F)C4CC4)cc3n2)C2CCC(F)(F)CC2)ccn1 [Example 177, N—((S)-(7-((R)-Cyclopropyl(4,4,4-trifluorobutanamido)methyl)imidazo[1,2-b]pyridazin-2-yl)(4,4-difluorocyclohexyl)methyl)-2-ethoxyisonicotinamide] |  | 440 nM
3 | 9500 nM | N#Cc1ccncc1C(=O)N[C@H](c1cn2ncc([C@H](NC(=O)CCC(F)(F)F)C3CC3)cc2n1)C1CCC(F)(F)CC1 [Example 225, 4-Cyano-N—((S)-(7-((R)-cyclopropyl(4,4,4-trifluorobutanamido)methyl)imidazo[1,2-b]pyridazin-2-yl)(4,4-difluorocyclohexyl)methyl)nicotinamide] |  | > 20000 nM
4 | 930 nM | Cc1nonc1C(=O)N[C@H](c1cn2ncc([C@H](NC(=O)C(C)CC(F)F)C3CC3)cc2n1)C1CCC(F)(F)CC1 (single isomer, unassigned) [Example 329, N—((S)-(7-((R)-Cyclopropyl((S*)-4,4-difluoro-2-methylbutanamido)methyl)imidazo[1,2-b]pyridazin-2-yl)(4,4-difluorocyclohexyl)methyl)-4-methyl-1,2,5-oxadiazole-3-carboxamide] |  | 2200 nM
5 | 220 nM | O=C(CC1CC(F)(F)C1)NC(c1cnn2cc([C@@H](NC(=O)c3cnn(CCC(F)(F)F)c3)C3CCC(F)(F)CC3)nc2c1)C1CC1 (single isomer, unassigned) [Example 8, N—((S)-(7-((R*)-Cyclopropyl(2-(3,3-difluorocyclobutyl)acetamido)methyl)imidazo[1,2-b]pyridazin-2-yl)(4,4-difluorocyclohexyl)methyl)-1-(3,3,3-trifluoropropyl)-1H-pyrazole-4-carboxamide] | 360 nM | 
6 | 35 nM | N#CC1([C@@H](NC(=O)C[C@H]2CC2(F)F)c2cnn3cc([C@@H](NC(=O)c4nonc4C4CC4)C4CCC(F)(F)CC4)nc3c2)CCC1 (single isomer, unassigned) [Example 448] |  | 12 nM
7 | 2100 nM | CC(=O)N(C)CCn1ncc(C(=O)N[C@H](c2cn3ncc([C@H](NC(=O)CCC(F)(F)F)C4CC4)cc3n2)C2CCC(F)(F)CC2)n1 [Example 114, N—((S)-(7-((R)-Cyclopropyl(4,4,4-trifluorobutanamido)methyl)imidazo[1,2-b]pyridazin-2-yl)(4,4-difluorocyclohexyl)methyl)-2-(2-(N-methylacetamido)ethyl)-2H-1,2,3-triazole-4-carboxamide] |  | 370 nM
8 | 5800 nM | Cc1nonc1C(=O)N[C@H](c1cn2ncc(C(NC(=O)CC3CC(F)(F)C3)C(C)(C)O)cc2n1)C1CCC(F)(F)CC1 (single isomer, unassigned) [Example 445, N—((S)-(7-((R*)-1-(2-(3,3-Difluorocyclobutyl)acetamido)-2-hydroxy-2-methylpropyl)imidazo[1,2-b]pyridazin-2-yl)(4,4-difluorocyclohexyl)methyl)-4-methyl-1,2,5-oxadiazole-3-carboxamide] | > 20000 nM | 
9 | 80 nM | O=C(CCC(F)(F)F)N[C@@H](c1cnn2cc([C@@H](NC(=O)c3cccc(OCC(F)(F)F)c3)C3CCC(F)(F)CC3)nc2c1)C1CC1 [Example 174, N—((S)-(7-((R)-Cyclopropyl(4,4,4-trifluorobutanamido)methyl)imidazo[1,2-b]pyridazin-2-yl)(4,4-difluorocyclohexyl)methyl)-3-(2,2,2-trifluoroethoxy)benzamide] |  | 390 nM
10 | 210 nM | O=C(CCC(F)(F)F)N[C@@H](c1cnn2cc([C@@H](NC(=O)[C@H]3C[C@@H]3C(F)F)C3CCC(F)(F)CC3)nc2c1)C1CC1 (single isomer, unassigned) [Example 361] |  | 1700 nM
11 | 110 nM | CC(C)n1nccc1C(=O)N[C@H](c1cn2ncc([C@H](NC(=O)C[C@H]3C[C@@H](F)C3)C3CC3)cc2n1)C1CCC(F)(F)CC1 (single isomer, unassigned) [Example 257] |  | 120 nM
12 | 39 nM | Cc1nonc1C(=O)N[C@H](c1cn2ncc(C(NC(=O)CCC(F)(F)F)C3CCC3)cc2n1)C1CCC(F)(F)CC1 (single isomer, unassigned) [Example 491, N—((S)-(7-((R*)-Cyclobutyl(4,4,4-trifluorobutanamido)methyl)imidazo[1,2-b]pyridazin-2-yl)(4,4-difluorocyclohexyl)methyl)-4-methyl-1,2,5-oxadiazole-3-carboxamide] |  | 85 nM
13 | 150 nM | CC(C)n1ncnc1C(=O)N[C@H](c1cn2ncc(C(NC(=O)CC3CC(F)(F)C3)C3CCOCC3)cc2n1)C1CCC(F)(F)CC1 (stereo in doubt) [Example 537, N—((S)-(7-((R*)-(2-(3,3-Difluorocyclobutyl)acetamido)(tetrahydro-2H-pyran-4-yl)methyl)imidazo[1,2-b]pyridazin-2-yl)(4,4-difluorocyclohexyl)methyl)-1-isopropyl-1H-1,2,4-triazole-5-carboxamide] |  | 150 nM
14 | 2200 nM | [2H]C([2H])([2H])C([2H])([2H])n1nccc1C(=O)N[C@H](c1cn2ncc(C(COC)NC(=O)CC3CC(F)(F)C3)cc2n1)C1CCC(F)(F)CC1 (single isomer, unassigned) [Example 522, N—((S)-(7-((S*)-1-(2-(3,3-Difluorocyclobutyl)acetamido)-2-methoxyethyl)imidazo[1,2-b]pyridazin-2-yl)(4,4-difluorocyclohexyl)methyl)-1-(ethyl-d5)-1H-pyrazole-5-carboxamide] | 3600 nM | 
15 | 160 nM | [2H]C([2H])([2H])C([2H])([2H])n1nccc1C(=O)N[C@H](c1cn2ncc([C@H](NC(=O)CCC(F)F)C3CC3)cc2n1)C1CCC(F)(F)CC1 [Example 282, N—((S)-(7-((R)-Cyclopropyl(4,4-difluorobutanamido)methyl)imidazo[1,2-b]pyridazin-2-yl)(4,4-difluorocyclohexyl)methyl)-1-(ethyl-d5)-1H-pyrazole-5-carboxamide] |  | 420 nM
16 | 410 nM | Cc1ccccc1C(=O)N[C@H](c1cn2ncc([C@H](NC(=O)CCC(F)(F)F)C3CC3)cc2n1)C1CCC(F)(F)CC1 [Example 40, N—((S)-(7-((R)-Cyclopropyl(4,4,4-trifluorobutanamido)methyl)imidazo[1,2-b]pyridazine-2-yl)(4,4-difluorocyclohexyl)methyl)-2-methylbenzamide] |  | 1200 nM
17 | 230 nM | O=C(CCC(F)(F)F)NC(c1cnn2cc([C@@H](NC(=O)c3ccn(CCC(F)(F)F)n3)C3CCC(F)(F)CC3)nc2c1)C1CC1 (single isomer, unassigned) [Example 21, N—((S)-(7-((R*)-Cyclopropyl(4,4,4-trifluorobutanamido)methyl)imidazo[1,2-b]pyridazin-2-yl)(4,4-difluorocyclohexyl)methyl)-1-(3,3,3-trifluoropropyl)-1H-pyrazole-3-carboxamide] |  | 720 nM
18 | 1300 nM | COc1cc(C(=O)N[C@H](c2cn3ncc([C@H](NC(=O)CCC(F)(F)F)C4CC4)cc3n2)C2CCC(F)(F)CC2)cnn1 [Example 459, N—((S)-(7-((R)-Cyclopropyl(4,4,4-trifluorobutanamido)methyl)imidazo[1,2-b]pyridazin-2-yl)(4,4-difluorocyclohexyl)methyl)-6-methoxypyridazine-4-carboxamide] |  | > 20000 nM
19 | 180 nM | Cc1nonc1C(=O)N[C@H](c1cn2ncc([C@H](NC(=O)CO[C@@H](C)C(F)(F)F)C3CC3)cc2n1)C1CCC(F)(F)CC1 [Example 333, N—((S)-(7-((R)-Cyclopropyl(2-(((S)-1,1,1-trifluoropropan-2-yl)oxy)acetamido)methyl)imidazo[1,2-b]pyridazin-2-yl)(4,4-difluorocyclohexyl)methyl)-4-methyl-1,2,5-oxadiazole-3-carboxamide] |  | 620 nM
20 | 1500 nM | O=C(CCC(F)(F)F)N[C@@H](c1cnn2cc([C@@H](NC(=O)[C@@H]3C[C@H]3F)C3CCC(F)(F)CC3)nc2c1)C1CC1 [Example 90, (1S,2R)—N—((S)-(7-((R)-Cyclopropyl(4,4,4-trifluorobutanamido)methyl)imidazo[1,2-b]pyridazin-2-yl)(4,4-difluorocyclohexyl)methyl)-2-fluorocyclopropane-1-carboxamide] |  | ~20000 nM
21 | 410 nM | O=C(CCC(F)(F)F)N[C@@H](c1cnn2cc([C@@H](NC(=O)c3nnn(C4CC4)c3C(F)F)C3CCC(F)(F)CC3)nc2c1)C1CC1 [Example 110, 1-Cyclopropyl-N—((S)-(7-((R)-cyclopropyl(4,4,4-trifluorobutanamido)methyl)imidazo[1,2-b]pyridazin-2-yl)(4,4-difluorocyclohexyl)methyl)-5-(difluoromethyl)-1H-1,2,3-triazole-4-carboxamide] |  | > 20000 nM
